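Values below derive from 48-hour exposures of cells grown in 96-well plates, with endpoints linearly interpolated between the two concentrations bracketing the appropriate inhibition level. The concentration for full growth arrest is given as TGI.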
Key:
Test in all cases: NCI tumour cell line growth inhibition, 48 h
786-0 renal = test system: 786-0 renal
A498 renal = test system: A498 renal
A549 NSCLC = test system: A549 NSCLC
ACHN renal = test system: ACHN renal
CAKI-1 renal = test system: CAKI-1 renal
COLO 205 colon = test system: COLO 205 colon
DLD-1 colon = test system: DLD-1 colon
DMS 114 small cell lung = test system: DMS 114 small cell lung
DMS 273 small cell lung = test system: DMS 273 small cell lung
EKVX NSCLC = test system: EKVX NSCLC
HCC-2998 colon = test system: HCC-2998 colon
HCT-116 colon = test system: HCT-116 colon
HCT-15 colon = test system: HCT-15 colon
HOP-18 NSCLC = test system: HOP-18 NSCLC
HOP-62 NSCLC = test system: HOP-62 NSCLC
HOP-92 NSCLC = test system: HOP-92 NSCLC
HT29 colon = test system: HT29 colon
IGROV1 ovarian = test system: IGROV1 ovarian
KM12 colon = test system: KM12 colon
KM20L2 colon = test system: KM20L2 colon
LOX IMVI melanoma = test system: LOX IMVI melanoma
LXFL 529 NSCLC = test system: LXFL 529 NSCLC
M14 melanoma = test system: M14 melanoma
M19-MEL melanoma = test system: M19-MEL melanoma
MALME-3M melanoma = test system: MALME-3M melanoma
MOLT-4 leukemia = test system: MOLT-4 leukemia
NCI-H23 lung = test system: NCI-H23 lung
NCI-H522 lung = test system: NCI-H522 lung
OVCAR-3 ovarian = test system: OVCAR-3 ovarian
OVCAR-4 ovarian = test system: OVCAR-4 ovarian
OVCAR-5 ovarian = test system: OVCAR-5 ovarian
OVCAR-8 ovarian = test system: OVCAR-8 ovarian
RXF 393 renal = test system: RXF 393 renal
RXF-631 renal = test system: RXF-631 renal
SF-268 CNS = test system: SF-268 CNS
SF-295 CNS = test system: SF-295 CNS
SF-539 CNS = test system: SF-539 CNS
SK-MEL-2 melanoma = test system: SK-MEL-2 melanoma
SK-MEL-28 melanoma = test system: SK-MEL-28 melanoma
SK-MEL-5 melanoma = test system: SK-MEL-5 melanoma
SK-OV-3 ovarian = test system: SK-OV-3 ovarian
SN12C renal = test system: SN12C renal
SNB-19 CNS = test system: SNB-19 CNS
SNB-75 CNS = test system: SNB-75 CNS
SNB-78 CNS = test system: SNB-78 CNS
SR leukemia = test system: SR leukemia
SW-620 colon = test system: SW-620 colon
TK-10 renal = test system: TK-10 renal
U251 CNS = test system: U251 CNS
UACC-257 melanoma = test system: UACC-257 melanoma
UACC-62 melanoma = test system: UACC-62 melanoma
UO-31 renal = test system: UO-31 renal

CC(=O)OCC1OC(n2c(-c3ccc(N)cc3)cc(-c3ccco3)c(C#N)c2=O)C(OC(C)=O)C(OC(C)=O)C1OC(C)=O (configuration not stated)
TGI (786-0 renal): > 50 µM
TGI (A498 renal): > 50 µM
TGI (A549 NSCLC): > 50 µM
TGI (ACHN renal): > 50 µM
TGI (CAKI-1 renal): > 50 µM
TGI (COLO 205 colon): > 50 µM
TGI (DLD-1 colon): > 50 µM
TGI (DMS 114 small cell lung): > 50 µM
TGI (DMS 273 small cell lung): > 50 µM
TGI (EKVX NSCLC): > 50 µM
TGI (HCC-2998 colon): > 50 µM
TGI (HCT-116 colon): > 50 µM
TGI (HCT-15 colon): > 50 µM
TGI (HOP-18 NSCLC): > 50 µM
TGI (HOP-62 NSCLC): > 50 µM
TGI (HOP-92 NSCLC): 33.9 µM
TGI (HT29 colon): > 50 µM
TGI (IGROV1 ovarian): > 50 µM
TGI (KM12 colon): > 50 µM
TGI (KM20L2 colon): > 50 µM
TGI (LOX IMVI melanoma): > 50 µM
TGI (LXFL 529 NSCLC): > 50 µM
TGI (M14 melanoma): > 50 µM
TGI (M19-MEL melanoma): > 50 µM
TGI (MALME-3M melanoma): > 50 µM
TGI (MOLT-4 leukemia): > 50 µM
TGI (NCI-H23 lung): > 50 µM
TGI (NCI-H522 lung): > 50 µM
TGI (OVCAR-3 ovarian): > 50 µM
TGI (OVCAR-4 ovarian): > 50 µM
TGI (OVCAR-5 ovarian): > 50 µM
TGI (OVCAR-8 ovarian): > 50 µM
TGI (RXF 393 renal): > 50 µM
TGI (RXF-631 renal): > 50 µM
TGI (SF-268 CNS): > 50 µM
TGI (SF-295 CNS): > 50 µM
TGI (SF-539 CNS): 30.2 µM
TGI (SK-MEL-2 melanoma): > 50 µM
TGI (SK-MEL-28 melanoma): > 50 µM
TGI (SK-MEL-5 melanoma): > 50 µM
TGI (SK-OV-3 ovarian): > 50 µM
TGI (SN12C renal): > 50 µM
TGI (SNB-19 CNS): > 50 µM
TGI (SNB-75 CNS): > 50 µM
TGI (SNB-78 CNS): > 50 µM
TGI (SR leukemia): > 50 µM
TGI (SW-620 colon): > 50 µM
TGI (TK-10 renal): > 50 µM
TGI (U251 CNS): 29.8 µM
TGI (UACC-257 melanoma): > 50 µM
TGI (UACC-62 melanoma): > 50 µM
TGI (UO-31 renal): > 50 µM
